# Data published in patent publication US20050182252A1, “Novel 2'-C-methyl nucleoside derivatives” (priority 2004, published 2005).
# Structures can show the parent of a compound that is named as a salt.
row,melting point [°C],SMILES
1,185 to 187,"C[C@@]1(O)[C@H](O)[C@@H](COP2(=O)OCC[C@@H](c3ccc(S(C)(=O)=O)cc3)O2)O[C@H]1n1cnc2c(N)ncnc21 (stereo partly drawn) (as salt: trifluoroacetic acid salt) [Compound 21.8, cis-5′-O-[4-(4-methylsulfonylphenyl)-2-oxo-1,3,2-dioxaphosphorinan-2-yl]-2′-C-beta-methyl-adenosine trifluoroacetic acid salt]"
2,177 to 180,C[C@@]1(O)[C@H](O)[C@@H](CO[P@]2(=O)OCC[C@H](c3ccccc3)O2)O[C@H]1n1ccc2c(N)ncnc21 [Compound 16.34]
3,101 to 103,"C[C@@]1(O)[C@H](O)[C@@H](COP2(=O)OCC[C@H](c3ccccc3F)O2)O[C@H]1n1ccc2c(N)ncnc21 (stereo partly drawn) [Compound 16.39, 4-amino-7-(cis-5′-O-[4-(2-fluorophenyl)-2-oxo-1,3,2-dioxaphosphorinan-2-yl]-2′-C-methyl-beta-D-ribofuranosyl)-7H-pyrrolo[2,3-d]pyrimidine]"
4,110 to 113,"C[C@@]1(O)[C@H](O)[C@@H](COP2(=O)OC3CCCCC3[C@@H](c3ccccc3)O2)O[C@H]1n1ccc2c(N)ncnc21 (stereo partly drawn) [Compound 16.42, 4-amino-7-(cis-5′-O-[4-phenyl-5,6-tetramethylene-2-oxo-1,3,2-dioxaphosphorinan-2-yl]-2′-C-methyl-beta-D-ribofuranosyl)-7H-pyrrolo[2,3-d]pyrimidine]"
5,157 to 160,"C[C@@]1(O)[C@H](O)[C@@H](COP2(=O)OCC[C@H](c3cccc(C#N)c3)O2)O[C@H]1n1ccc2c(N)ncnc21 (stereo partly drawn) [Compound 16.43, 4-amino-7-(cis-5′-O-[4-(3-cyanophenyl)-2-oxo-1,3,2-dioxaphosphorinan-2-yl]-2′-C-methyl-beta-D-ribofuranosyl)-7H-pyrrolo[2,3-d]pyrimidine]"
6,175,"C[C@@]1(O)[C@H](O)[C@@H](COP2(=O)OCC[C@@H](c3cccc(Cl)c3)O2)O[C@H]1n1ccc2c(=O)[nH]c(N)nc21 (stereo partly drawn) [Compound 17.2, 2-amino-7-(cis-5-O-[4-(S)-(3-chlorophenyl)-2-oxo-1,3,2-dioxaphosphorinan-2-yl]-2′-C methyl-beta-D-ribofuranosyl)-7H-pyrrolo[2,3-d]pyrimidin-4(3H)-one]"
7,170 to 173,"C[C@@]1(O)[C@H](O)[C@@H](COP2(=O)OCC[C@@H](c3cc(F)ccc3F)O2)O[C@H]1n1ccc2c(=O)[nH]c(N)nc21 (stereo partly drawn) [Compound 17.6, 2-amino-7-(cis-5′-O-[4-(2,5-difluorophenyl)-2-oxo-1,3,2-dioxaphosphorinan-2-yl]-2′-C methyl-beta-D-ribofuranosyl)-7H-pyrrolo[2,3-d]pyrimidin-4(3H)-one]"
8,177 to 180,"C[C@@]1(O)[C@H](O)[C@@H](COP2(=O)OCC[C@H](c3cc(Cl)cc(Cl)c3)O2)O[C@H]1n1ccc2c(=O)[nH]c(N)nc21 (stereo partly drawn) [Compound 17.12, 2-amino-7-(cis-5′-O-[4-(3,5-dichlorophenyl)-2-oxo-1,3,2-dioxaphosphorinan-2-yl]-2′C methyl-beta-D-ribofuranosyl)-7H-pyrrolo[2,3-d]pyrimidin-4(3H)-one]"
9,138 to 141,"C[C@@]1(O)[C@H](O)[C@@H](CO[P@@]2(=O)OCC[C@@H](c3ccncc3)O2)O[C@H]1n1ccc2c(=O)[nH]c(N)nc21 [Compound 17.13, 2-amino-7-(cis-5-O-[4-(S)-(pyridin-4-yl)-2-oxo-1,3,2-dioxaphosphorinan-2-yl]-2-C methyl-beta-D-ribofuranosyl)-7H-pyrrolo[2,3-d]pyrimidin-4(3H)-one]"
10,170,"C[C@@]1(O)[C@H](O)[C@@H](COP2(=O)OCC[C@@H](c3cccc(F)c3)O2)O[C@H]1n1ccc2c(=O)[nH]c(N)nc21 (stereo partly drawn) [Compound 17.14, 2-amino-7-(cis-5′-O-[4-(3-fluorophenyl)-2-oxo-1,3,2-dioxaphosphorinan-2-yl]-2-C methyl-beta-D-ribofuranosyl)-7H-pyrrolo[2,3-d]pyrimidin-4(3H)-one]"

# The remaining lines, values behind:
row,SMILES,melting point [°C]
1,"C[C@@]1(O)[C@H](O)[C@@H](COP2(=O)OCC[C@H](c3cc(F)ccc3F)O2)O[C@H]1n1ccc2c(N)ncnc21 (stereo partly drawn) [Compound 16.2, 4-amino-7-(cis-5′-O-[4-(2,5-difluorophenyl)-2-oxo-1,3,2-dioxaphosphorinan-2-yl]-2-C-methyl-beta-D-ribofuranosyl)-7H-pyrrolo[2,3-d]pyrimidine]",145 to 148
2,"C[C@@]1(O)[C@H](O)[C@@H](COP2(=O)OCC[C@H](c3ccc(F)c(Cl)c3)O2)O[C@H]1n1ccc2c(N)ncnc21 (stereo partly drawn) [Compound 16.3, 4-amino-7-(cis-5′-O-[4-(3-chloro-4-fluorophenyl)-2-oxo-1,3,2-dioxaphosphorinan-2-yl]-2′-C-methyl-beta-D-ribofuranosyl)-7H-pyrrolo[2,3-d]pyrimidine]",128 to 130
3,"CC1(C)C[C@H](c2ccccc2)OP(=O)(OC[C@H]2O[C@@H](n3ccc4c(N)ncnc43)[C@](C)(O)[C@@H]2O)O1 (stereo partly drawn) [Compound 16.4, 4-amino-7-(cis-5′-O-[6,6-dimethyl-4-phenyl-2-oxo-1,3,2-dioxaphosphorinan-2-yl]-2′-C-methyl-beta-D-ribofuranosyl)-7H-pyrrolo[2,3-d]pyrimidine]",140 to 142
4,"C[C@@]1(O)[C@H](O)[C@@H](CO[P@@]2(=O)OCC[C@@H](c3cccc(Cl)c3)O2)O[C@H]1n1ccc2c(N)ncnc21 [Compound 16.5, 4-amino-7-(cis-5′-[4-(S)-(3-chlorophenyl)-2-oxo-1,3,2-dioxaphosphorinan-2-yl]-2′-C-methyl-beta-D-ribofuranosyl)-7H-pyrrolo[2,3-d]pyrimidine]",135 to 138
5,C[C@@]1(O)[C@H](O)[C@@H](CO[P@@]2(=O)OCC[C@@H](c3ccncc3)O2)O[C@H]1n1ccc2c(N)ncnc21 [Compound 16.7],183 to 185
6,"C[C@@]1(O)[C@H](O)[C@@H](COP2(=O)OCC[C@@H](c3ccccc3Br)O2)O[C@H]1n1ccc2c(N)ncnc21 (stereo partly drawn) [Compound 16.10, 4-amino-7-(cis-5′-O-[4-(2-bromophenyl)-2-oxo-1,3,2-dioxaphosphorinan-2-yl]-2′-C-methyl-beta-D-ribofuranosyl)-7H-pyrrolo[2,3-d]pyrimidine]",132 to 135
7,"C[C@@]1(O)[C@H](O)[C@@H](COP2(=O)OCC[C@@H](c3cncc(Br)c3)O2)O[C@H]1n1ccc2c(N)ncnc21 (stereo partly drawn) [Compound 16.11, 4-amino-7-(cis-5′-O-[4-(5-bromopyridin-3-yl)-2-oxo-1,3,2-dioxaphosphorinan-2-yl]-2′-C-methyl-beta-D-ribofuranosyl)-7H-pyrrolo[2,3-d]pyrimidine]",132 to 135
8,"C[C@@]1(O)[C@H](O)[C@@H](CO[P@@]2(=O)OCC[C@@H](c3ccccc3)O2)O[C@H]1n1ccc2c(N)ncnc21 [Compound 16.12, 4-amino-7-(cis-5′-O-[4-(S)-phenyl-2-oxo-1,3,2-dioxaphosphorinan-2-y]-2′-C-methyl-beta-D-ribofuranosyl)-7H-pyrrolo[2,3-d]pyrimidine]",115 to 118
9,"C[C@@]1(O)[C@H](O)[C@@H](COP2(=O)OCC[C@@H](c3ccccc3Cl)O2)O[C@H]1n1ccc2c(N)ncnc21 (stereo partly drawn) [Compound 16.14, 4-amino-7-(cis-5′-O-[4-(2-chlorophenyl)-2-oxo-1,3,2-dioxaphosphorinan-2-yl]-2′-C-methyl-beta-D-ribofuranosyl)-7H-pyrrolo[2,3-d]pyrimidine]",187 to 190
10,"C[C@@]1(O)[C@H](O)[C@@H](COP2(=O)OC[C@@H](c3ccccc3)[C@@H](c3ccccc3)O2)O[C@H]1n1ccc2c(N)ncnc21 (stereo partly drawn) [Compound 16.22, 4-amino-7-(trans-5′-O-[4,5-cis-diphenyl-2-oxo-1,3,2-dioxaphosphorinan-2-yl]-2′-C-methyl-beta-D-ribofuranosyl)-7H-pyrrolo[2,3-d]pyrimidine]",160 to 163
11,"C[C@@]1(O)[C@H](O)[C@@H](COP2(=O)OCC[C@@H](c3cc(Cl)ccc3Br)O2)O[C@H]1n1ccc2c(N)ncnc21 (stereo partly drawn) [Compound 16.25, 4-amino-7-(cis-5′-O-[4-(2-bromo-5-chlorophenyl)-2-oxo-1,3,2-dioxaphosphorinan-2-yl]-2′-C-methyl-beta-D-ribofuranosyl)-7H-pyrrolo[2,3-d]pyrimidine]",193 to 196
12,"C[C@@]1(O)[C@H](O)[C@@H](COP2(=O)OCC[C@H](c3cc(Cl)cc(Cl)c3)O2)O[C@H]1n1ccc2c(N)ncnc21 (stereo partly drawn) [Compound 16.26, 4-amino-7-(cis-5′-O-[4-(3,5-dichlorophenyl)-2-oxo-1,3,2-dioxaphosphorinan-2-yl]-2′-C-methyl-beta-D-ribofuranosyl)-7H-pyrrolo[2,3-d]pyrimidine]",182 to 185
13,"C[C@@]1(O)[C@H](O)[C@@H](COP2(=O)OCC[C@H](c3cc(F)cc(F)c3)O2)O[C@H]1n1ccc2c(N)ncnc21 (stereo partly drawn) [Compound 16.27, 4-amino-7-(cis-5′-O-[-4-(3,5-difluorophenyl)-2-oxo-1,3,2-dioxaphosphorinan-2-yl]-2′-C-methyl-beta-D-ribofuranosyl)-7H-pyrrolo[2,3-d]pyrimidine]",135 to 140
14,"C[C@@]1(O)[C@H](O)[C@@H](CO[P@]2(=O)OCC[C@H](c3cccc(Cl)c3)O2)O[C@H]1n1ccc2c(N)ncnc21 [Compound 16.28, 4-amino-7-(cis-5′-O-[4-(R)-(3-chlorophenyl)-2-oxo-1,3,2-dioxaphosphorinan-2-yl]-2′-C-methyl-beta-D-ribofuranosyl)-7H-pyrrolo[2,3-d]pyrimidine]",126 to 128
15,"C[C@@]1(O)[C@H](O)[C@@H](COP2(=O)OCC[C@H](c3ccccc3C(F)(F)F)O2)O[C@H]1n1ccc2c(N)ncnc21 (stereo partly drawn) [Compound 16.29, 4-amino-7-(cis-5′-O-[4-(2-trifluoromethylphenyl)-2-oxo-4,3,2-dioxaphosphorinan-2-yl]-2′-C-methyl-beta-D-ribofuranosyl)-7H-pyrrolo[2,3-d]pyrimidine]",115 to 120
16,"C[C@@]1(O)[C@H](O)[C@@H](CO[P@]2(=O)OCC[C@H](c3ccncc3)O2)O[C@H]1n1ccc2c(N)ncnc21 [Compound 16.30, 4-amino-7-(cis-5′-O-[4-(R)-(pyridin-4-yl)-2-oxo-1,3,2-dioxaphosphorinan-2-yl]-2′-C-methyl-beta-D-ribofuranosyl)-7H-pyrrolo[2,3-d]pyrimidine]",132 to 136
17,C[C@@]1(O)[C@H](O)[C@@H](COP2(=O)OCC[C@H](c3cccnc3)O2)O[C@H]1n1ccc2c(N)ncnc21 (stereo partly drawn) [Compound 16.32],134 to 138
